Measured values taken from article PMC4645160, “Targeting kinases with anilinopyrimidines: discovery of N-phenyl-N’-[4-(pyrimidin-4-ylamino)phenyl]urea derivatives as selective inhibitors of class III receptor tyrosine kinase subfamily” (Scientific Reports, 2015).

Experiments:
A549 cells = experiment: MTT cytotoxicity assay, A549 lung cancer cells; format: cell-based, human; conditions: for IC50: Homo sapiens, A549, 72 h, MTT test, 72 h of drug treatment, read-out: A549 IC50 (μM) ± SD; for Potency relative to SU (A549): ratio between IC50 of sunitinib and IC50 of tested compound
Protocol: (§1) Compounds active against at least one kinase among EGFR and class III RTKs were evaluated for their cytotoxic properties against two different human cancer cell lines, namely non small cells A549 lung cancer cells (sensitive to EGFR inhibitors)[46] and pancreatic BxPC3 adenocarcinoma (sensitive to both PDGFRβ and EGFR inhibitors)[47][48] cells. […] The results, expressed as IC50 values (μM) calculated from the dose-survival curves obtained after 72 h of drug treatment from the MTT test, are reported in Table 1.
(§2) All compounds, except derivative 27, were dissolved in DMSO just before the experiment, and a calculated amount of drug solution was added to the cell growth medium to a final solvent concentration of 0.5%, which had no discernible effect on cell killing. Compound 27 was dissolved in a 0.9% NaCl solution just before the experiment.
(§3) Human lung (A549), breast (MCF-7), pancreas (BxPC3), and colon (LoVo) carcinoma cell lines along with melanoma (A375) were obtained from American Type Culture Collection (ATCC, Rockville, MD). Human non-tumor embryonic kidney HEK293 cells were obtained from European Collection of Cell Cultures (ECACC, Salisbury, UK). Human cervical carcinoma A431cells were kindly provided by Prof. F. Zunino (Division of Experimental Oncology B, Istituto Nazionale dei Tumori, Milan, Italy). Human ovarian cancer 2008 cells were kindly provided by Prof. G. Marverti (Dept. of Biomedical Science of Modena University, Italy). Cell lines were maintained in the logarithmic phase at 37 °C in a 5% carbon dioxide atmosphere using the following culture media containing 10% fetal calf serum (Euroclone, Milan, Italy), antibiotics (50 units ∙ mL^−1 penicillin and 50 μg ∙ mL^−1 streptomycin) and 2 mM l-glutamine: i) RPMI-1640 medium (Euroclone) for MCF-7, A431, BxPC3 and 2008 cells; ii) F-12 HAM’S (Sigma Chemical Co.) for A549 and LoVo cells; iii) D-MEM medium (Euroclone) for HEK293 cells.
(§4) The growth inhibitory effect towards human cell lines was evaluated by means of MTT (tetrazolium salt reduction) assay. Briefly, 3–8 ∙ 10^3 cells/well, dependent upon the growth characteristics of the cell line, were seeded in 96-well microplates in growth medium (100 μL) and then incubated at 37 °C in a 5% carbon dioxide atmosphere. After 24 h, the medium was removed and replaced with a fresh one containing the test compound at the appropriate concentration. Triplicate cultures were established for each treatment. After 72 h, each well was treated with 10 μL of a 5 mg ∙ mL-1 MTT (3-(4,5-dimethylthiazol-2-yl)-2,5-diphenyltetrazolium bromide) saline solution, and after 5 h additional incubation, 100 μL of a sodium dodecylsulfate (SDS) solution in HCl 0.01 M were added. After overnight incubation, the inhibition of cell growth induced by the tested complexes was detected by measuring the absorbance of each well at 570 nm using a Bio-Rad 680 microplate reader (Bio-Rad, Hercules, CA). Mean absorbance for each drug dose was expressed as a percentage of the control untreated well absorbance and plotted vs drug concentration.

BxPC3 cells = experiment: MTT cytotoxicity assay, BxPC3 pancreatic adenocarcinoma cells; format: cell-based, human; conditions: for IC50: Homo sapiens, BXPC-3, MTT test, 72 h of drug treatment, read-out: BxPC3 IC50 (μM) ± SD; for Potency relative to SU (BxPC3): ratio between IC50 of sunitinib and IC50 of tested compound
Protocol: as §1, §2, §3, §4

panel of 48 kinases = experiment: KinomeScan primary screening (POC) at 10 μM; format: binding, human; conditions: POC values
Excerpt: Synthesized compounds were screened against a panel of 48 kinases selected within the ScanEDGE subset of DiscoverX (http://www.discoverx.com/services/drug-discovery-development-services/kinase-profiling/kinomescan/scanedge). The ScanEDGE includes 97 kinases and is an economical approach to assess compounds selectivity throughout the human kinome. All the wt-TKs along with some relevant mutants of Abl1 (T315I) and of EGFR (L858R and L858R/T790M) were chosen. The remaining 18 targets (3 Tyrosine Kinases-Like, TKLs; 15 Serine-Threonine Kinases, STKs) were selected among the remaining kinases in the ScanEDGE subset on the basis of their well established role in cancer (see Fig. S2 for a graphical representation of the selected kinases with reference to the kinome tree. Some references highlighting the role of each kinase in cancer are also reported in Table S3).
The compounds were evaluated using the KinomeScan™ platform (http://www.discoverx.com/services/drug-discovery-development-services/kinase-profiling/kinomescan), that measures the ability of the test compound to disrupt the complex between a high affinity ATP-mimic probe immobilized on a solid support and the kinase of interest. The KinomeScan is a very helpful technology for the fast and reliable screening of a number of compounds against a wide and customizable panel of kinases. Besides, it is not based on the use of hazardous radioactive ^32P-ATP and has a very low rate of false positive (<1%)[44]. The screening platform outputs a “Percent of Control” (POC) value, statistically correlated to the dissociation constant (Kd) value (http://www.discoverx.com/tools-resources/leadhunter-study-reports-data-analysis), for each pair of kinase/ligand. The POC is calculated as reported in equation (1):
Where: test compound signal = amount of kinase still binding the probe after treatment with test compound; negative control signal = amount of kinase still binding the probe after treatment with DMSO (100% control); positive control signal = amount of kinase still binding the probe after treatment with control compound (0% control).
The compounds were tested at high concentration (10 μM), in order to highlight not only the main target but also the off-targets. The results of the preliminary screening are reported as heat map (Fig. 4; see also Table S4 for all the measured values), in which the compounds are grouped on the basis of the 6 or 5 substituent at the pyrimidine ring.

HEK293 cells = experiment: MTT cytotoxicity assay, non-tumor HEK293 cells; format: cell-based, human; conditions: Homo sapiens, HEK293; MTT test, 72 h, non-tumor cells; read-out: HEK293 IC50 (μM) ± SD
Protocol: F. Zunino (Division of Experimental Oncology B, Istituto Nazionale dei Tumori, Milan, Italy).
The growth inhibitory effect towards human cell lines was evaluated by means of MTT (tetrazolium salt reduction) assay. […] Triplicate cultures were established for each treatment.

2008 cells = experiment: MTT cytotoxicity assay, 2008 ovarian cancer cells; format: cell-based; conditions: Homo sapiens; MTT test, 72 h; read-out: 2008 IC50 (μM) ± SD
Protocol: (§5) The cytotoxic profile of 19 and 27 was assessed on a wider panel of human tumor cell lines including also examples of breast (MCF-7), cervical (A431), colorectal (HCT-15), and ovarian (2008) cancers as well as melanoma (A375), besides lung (A549) and pancreatic (BxPC3) cancer cells. IC50 values, calculated from the dose-survival curves obtained after 72 h of drug treatment from the MTT test, are reported in Table 2. […] Both compounds were endowed with a cytotoxic potency higher than that of SU, eliciting IC50 values in the low micromolar range.
as §2
(§6) Human lung (A549), breast (MCF-7), pancreas (BxPC3), and colon (LoVo) carcinoma cell lines along with melanoma (A375) were obtained from American Type Culture Collection (ATCC, Rockville, MD). Human non-tumor embryonic kidney HEK293 cells were obtained from European Collection of Cell Cultures (ECACC, Salisbury, UK). Human cervical carcinoma A431cells were kindly provided by Prof. F. Zunino (Division of Experimental Oncology B, Istituto Nazionale dei Tumori, Milan, Italy). Human ovarian cancer 2008 cells were kindly provided by Prof. G. Marverti (Dept. of Biomedical Science of Modena University, Italy). […]
(§7) The growth inhibitory effect towards human cell lines was evaluated by means of MTT (tetrazolium salt reduction) assay. […] After overnight incubation, the inhibition of cell growth induced by the tested complexes was detected by measuring the absorbance of each well at 570 nm using a Bio-Rad 680 microplate reader (Bio-Rad, Hercules, CA). Mean absorbance for each drug dose was expressed as a percentage of the control untreated well absorbance and plotted vs drug concentration.

MCF-7 cells = experiment: MTT cytotoxicity assay, MCF-7 breast cancer cells; format: cell-based; conditions: Homo sapiens, MCF7; MTT test, 72 h; read-out: MCF-7 IC50 (μM) ± SD
Protocol: as §5, §2, §6, §7

LoVo cells = experiment: MTT cytotoxicity assay, LoVo colon carcinoma cells; format: cell-based; conditions: Homo sapiens, MTT test, 72 h, read-out: LoVo IC50 (μM) ± SD
Protocol: as §5, §2, §6, §7

A375 cells = experiment: MTT cytotoxicity assay, A375 melanoma cells; format: cell-based; conditions: Homo sapiens, A-375; MTT test, 72 h; read-out: A375 IC50 (μM) ± SD
Protocol: as §5, §2, §6, §7

| melting point | Structure (SMILES) | IC50 (A549 cells) | Potency relative to SU (A549) (A549 cells) | IC50 (BxPC3 cells) | Potency relative to SU (BxPC3) (BxPC3 cells) | Selectivity profile (kinases targeted) in primary screening (panel of 48 kinases) | IC50 (HEK293 cells) | IC50 (2008 cells) | IC50 (MCF-7 cells) | IC50 (LoVo cells) | IC50 (A375 cells) |
| --- | --- | --- | --- | --- | --- | --- | --- | --- | --- | --- | --- |
| 254 °C | Cc1cccc(Nc2cc(Nc3ccccc3)ncn2)c1 [Compound 1] | 8.94 ± 2.18 µM | 0.70 | 6.43 ± 1.78 µM | 0.79 | EGFR selective | – | – | – | – | – |
| 267 °C | c1ccc(Nc2cc(Nc3cccc(-c4ccccc4)c3)ncn2)cc1 [Compound 2] | 26.5 ± 3.85 µM | 0.23 | 17.9 ± 2.46 µM | 0.28 | – | – | – | – | – | – |
| 253 °C | Oc1cccc(Nc2cc(Nc3ccccc3)ncn2)c1 [Compound 3] | 28.2 ± 5.46 µM | 0.22 | 8.19 ± 2.18 µM | 0.62 | – | – | – | – | – | – |
| 265 °C | Cc1ccc(Nc2cc(Nc3ccccc3)ncn2)cc1 [Compound 4] | 14.2 ± 2.75 µM | 0.44 | 23.2 ± 4.29 µM | 0.22 | EGFR selective | – | – | – | – | – |
| 286 °C | Oc1ccc(Nc2cc(Nc3ccccc3)ncn2)cc1 [Compound 5] | 16.3 ± 4.24 µM | 0.38 | 6.51 ± 1.07 µM | 0.78 | EGFR; class III RTK; AXL | – | – | – | – | – |
| – | Nc1ccc(Nc2cc(Nc3ccccc3)ncn2)cc1 [Compound 6] | 34 ± 4.98 µM | 0.18 | 16.1 ± 4.85 µM | 0.31 | – | – | – | – | – | – |
| – | Cc1cccc(Nc2cc(Nc3cccc(C)c3)ncn2)c1 [Compound 8] | > 50 µM | <0.12 | > 50 µM | <0.10 | – | – | – | – | – | – |
| 243 °C | Brc1cccc(Nc2cc(Nc3cccc(Br)c3)ncn2)c1 [Compound 9] | > 50 µM | <0.12 | > 50 µM | <0.10 | – | – | – | – | – | – |
| – | Oc1ccc(Nc2cc(Nc3ccc(O)cc3)ncn2)cc1 [Compound 12] | > 50 µM | <0.12 | > 50 µM | <0.10 | EGFR; calss III RTK; AXL; TRKA; JAK3 | – | – | – | – | – |
| 272 °C | Cc1cccc(Nc2cc(-c3ccccc3)ncn2)c1 [Compound 13] | – | – | – | – | Inactive | – | – | – | – | – |
| – | Cc1cccc(Nc2ncncc2-c2ccccc2)c1 [Compound 20] | – | – | – | – | Inactive | – | – | – | – | – |
| 118 °C | Oc1ccc(Nc2ncncc2-c2ccccc2)cc1 [Compound 24] | 12.1 ± 1.99 µM | 0.51 | 16.4 ± 4.22 µM | 0.31 | – | – | – | – | – | – |
| – | Nc1ccc(Nc2ncncc2-c2ccccc2)cc1 [Compound 25] | 26.1 ± 4.55 µM | 0.24 | 27.9 ± 5.28 µM | 0.18 | – | – | – | – | – | – |
| – | O=C(Nc1ccccc1)Nc1ccc(Nc2ncncc2-c2ccccc2)cc1 [Compound 26] | 28.9 ± 5.86 µM | 0.21 | 30.9 ± 4.18 µM | 0.16 | class III RTK | – | – | – | – | – |
| – | CCN(CC)CCNC(=O)c1c(C)[nH]c(/C=C2\C(=O)Nc3ccc(F)cc32)c1C [SU, sunitinib, reference compound] | 6.22 ± 1.84 µM | – | 5.05 ± 1.34 µM | – | – | 12.2 ± 2.83 µM | 3.52 ± 1.22 µM | 2.58 ± 0.85 µM | 8.18 ± 2.67 µM | 8.25 ± 2.88 µM |
